Converted amounts (≈) assume the structure as drawn. Read-outs that look alike come from different tables or passages of the source.
Assays:
[1] = tested on: exponentially-growing S. aureus; conditions: within 15 minutes to 2 hours; MSSA, MRSA, and VRSA; cited from earlier work
[2] = Oritavancin concentrations (PK samples) in compassionate use subject; assay type: in vivo, human
Method: In response to a compassionate use request, oritavancin was administered to a subject having bacteremia.
Treatment as of Feb. 8, 2013: oritavancin (1200 mg IV, Q2D×3 times, then QW×5 times).
PK samples have been taken.
Attending physician kept the infusion time at 4 hours.
The concentrations are consistent with expectations from modeling (modeled oritavancin concentration-time profile is attached), with oritavancin attaining peaks of about 120-130 ug/mL and troughs of around 5-10 ug/mL for the loading phase and of around 5 ug/mL for the weekly dosing phase.

[3] = tested on: E. faecium; assay: Broth microdilution MIC, US isolates 2011-2012, blood vs non-blood; assay type: cell-based
Method: (§1) 527 E. faecalis, 176 E. faecium, and 790 BHS (335 S. pyogenes and 455 S. agalactiae) clinical, single patient, non-consecutive isolates were collected in 2011-2012 from 46 sites geographically distributed across the United States. The MICs were determined by broth microdilution testing performed in accordance with CLSI M7 and M100 guidelines. From the resulting database, this analysis focused on the activities of ORI, vancomycin (VAN), daptomycin (DAP), and linezolid (LZD) according to specimen source.

[4] = tested on: S. pyogenes; assay: as above; assay type: cell-based
Method: as §1

[5] = tested on: S. agalactiae; assay: as above; assay type: cell-based
Method: as §1

[6] = tested on: E. faecalis; assay: as above; assay type: cell-based
Method: as §1

[7] = tested on: E. faecalis; assay: Broth microdilution MIC, European bacteraemia isolates 2010-2012; assay type: cell-based, Enterococcus faecalis
Method: (§2) A total of 2,904 clinical strains responsible for documented bacteremia among unique hospitalized patients in 38 hospitals in 11 European Union countries. Israel, Russia, Turkey and Ukraine were included in this study (2010-2012). Isolates were submitted to a central monitoring laboratory (JMI Laboratories, North Liberty. Iowa. USA), following previously established protocols. Bacterial species identification was performed by using an automated system (Vitek®2; bioMèrieux, Hazelwood, Mo., USA) or conventional biochemical algorithms, as required.
(§3) Isolates were tested for susceptibility by broth microdilution methods following the Clinical and Laboratory Standards Institute (CLSI; M07-A9, 2012) document. Susceptibility testing was performed in cation-adjusted Mueller-Hinton broth (CA-MHB) using dry-form panels manufactured by Thermo Fisher Scientific, formerly TREK Diagnostics Systems/Sensititre (Cleveland. Ohio, USA). These panels provide results equivalent to the CLSI-approved broth microdilution method supplemented with 0.002% polysorbate-80.
(§4) Quality assurance was performed by concurrent testing of CLSI-recommended (M100-S23, 2013) strains: E. faecalis ATCC 29212 and S. aureus ATCC 29213. Interpretation of comparator MIC results was in accordance with published CLSI (M100-S23) and European Committee on Antimicrobial Susceptibility Testing (EUCAST, 2013) criteria.

[8] = tested on: Coagulase-negative staphylococci; assay: as above; assay type: cell-based, coagulase-negative staphylococci (CoNS)
Method: as §2, §3, §4

[9] = E. faecalis (445), at ≦0.008 mg/L
[10] = Enterococcus faecalis, read-out: cumulative % inhibited at MIC
[11] = CoNS, Methicillin-resistant (509), at ≦0.008 mg/L
[12] = CoNS, Methicillin-susceptible (137), at ≦0.008 mg/L
[13] = CoNS, Teicoplanin MIC ≧8 mg/L (72), at ≦0.008 mg/L
[14] = Table 1, CoNS, Methicillin-resistant (509)
[15] = Table 1, CoNS, Methicillin-susceptible (137)
[16] = Table 2, Coagulase-negative staphylococci (646)
[17] = read-out: cumulative % inhibited at MIC

CN[C@H](CC(C)C)C(=O)N[C@H]1C(=O)N[C@@H](CC(N)=O)C(=O)N[C@H]2C(=O)N[C@H]3C(=O)N[C@H](C(=O)N[C@H](C(=O)O)c4cc(O)cc(O)c4-c4cc3ccc4O)[C@H](O[C@H]3C[C@](C)(N)[C@@H](O)[C@H](C)O3)c3ccc(c(Cl)c3)Oc3cc2cc(c3O[C@@H]2O[C@H](CO)[C@@H](O)[C@H](O)[C@H]2O[C@H]2C[C@](C)(NCc3ccc(-c4ccc(Cl)cc4)cc3)[C@@H](O)[C@H](C)O2)Oc2ccc(cc2Cl)[C@H]1O [Oritavancin, N-(4-(4-chlorophenyl)benzyl)A82846B]
reduction (bactericidal activity) [1]: ≥ 3 log | peaks (oritavancin concentration) ([2]; 1200 mg IV, Q2D x3 then QW x5): 120 to 130 µg/mL | Oritavancin concentration ([2]; Peak - First Dose, 1200 mg IV): 114.793 µg/mL | Oritavancin concentration ([2]; Peak - Third Dose, 1200 mg IV): 133.581 µg/mL | Oritavancin concentration ([2]; Trough - First Dose, 1200 mg IV): 4.272 µg/mL | Oritavancin concentration ([2]; Trough - Second Dose, 1200 mg IV): 7.614 µg/mL | troughs (oritavancin concentration) ([2]; loading phase): 5 to 10 µg/mL | Oritavancin concentration ([2]; trough, fifth dose, 1200 mg IV): 4.584 µg/mL | Oritavancin concentration ([2]; trough, fourth dose, 1200 mg IV): 4.256 µg/mL | Oritavancin concentration ([2]; trough, sixth dose, 1200 mg IV): 4.489 µg/mL | Oritavancin concentration ([2]; trough, third dose, 1200 mg IV): 3.775 µg/mL | accumulation ([2]; weekly dosing phase): no evidence of substantial accumulation | troughs (oritavancin concentration) ([2]; weekly dosing phase): around 5 ug/mL | MIC90 ([3]; Blood, N 84): 0.12 µg/mL (≈ 0.0669 µM) | MIC90 ([3]; Non-Blood, N 92): 0.12 µg/mL (≈ 0.0669 µM) | MIC90 ([4]; Blood, N 53): 0.25 µg/mL (≈ 0.139 µM) | MIC90 ([4]; Non-Blood, N 282): 0.25 µg/mL (≈ 0.139 µM) | MIC90 ([5]; Blood, N 100): 0.25 µg/mL (≈ 0.139 µM) | MIC90 ([5]; Non-Blood, N 355): 0.25 µg/mL (≈ 0.139 µM) | MIC90 ([6]; Blood, N 116): 0.06 µg/mL (≈ 0.0335 µM) | MIC90 ([6]; Non-Blood, N 411): 0.06 µg/mL (≈ 0.0335 µM) | Number inhibited at MIC ([7]; E. faecalis (445), at 0.015 mg/L): 204 | Number inhibited at MIC ([7]; E. faecalis (445), at 0.03 mg/L): 89 | Number inhibited at MIC ([7]; E. faecalis (445), at 0.06 mg/L): 30 | Number inhibited at MIC ([7]; E. faecalis (445), at 0.12 mg/L): 13 | Number inhibited at MIC ([7]; E. faecalis (445), at 0.25 mg/L): 4 | Number inhibited at MIC ([7]; E. faecalis (445), at 0.5 mg/L): 1 | Number inhibited at MIC [7, 9]: 104 | cumulative % inhibited at MIC [7, 9]: 23.4% | MIC50 ([7]; Enterococcus faecalis): 0.015 µg/mL (≈ 0.00837 µM) | MIC90 ([7]; Enterococcus faecalis): 0.06 µg/mL (≈ 0.0335 µM) | MIC ([7]; Enterococcus faecalis, read-out: MIC values): 0.12 to 0.5 µg/mL (≈ 0.0669 to 0.279 µM) | inhibition at 0.015 µg/mL [7, 10]: 69.2% | inhibition at 0.03 µg/mL [7, 10]: 89.2% | inhibition at 0.06 µg/mL [7, 10]: 96% | inhibition at 0.12 µg/mL [7, 10]: 98.9% | inhibition at 0.25 µg/mL [7, 10]: 99.8% | inhibition at 0.5 µg/mL [7, 10]: 100% | MIC 50% ([7]; Table 1, E. faecalis (445)): 0.015 mg/L (≈ 0.00837 µM) | MIC 90% ([7]; Table 1, E. faecalis (445)): 0.06 mg/L (≈ 0.0335 µM) | MIC Range ([7]; Table 2, E. faecalis (445), includes four VanA-phenotype strains): ≦0.008-0.5 mg/L | concentration inhibiting all strains ([7]; all E. faecalis, including resistant subsets): ≤ 0.5 mg/L | MIC50 [8]: 0.03 µg/mL (≈ 0.0167 µM) | MIC90 [8]: 0.06 µg/mL (≈ 0.0335 µM) | MIC50 and MIC90 lower than linezolid ([8]; CoNS isolates): 16 fold | MIC values lower than vancomycin ([8]; CoNS isolates): 32- to 64 fold | MIC results relative to strains with teicoplanin MIC≦4 mg/L ([8]; CoNS with decreased susceptibility to teicoplanin (MIC≧8 mg/L)): two-fold higher | MIC ([8]; CoNS with decreased susceptibility to teicoplanin (MIC≧8 mg/L), read-out: highest MIC value): 0.25 µg/mL (≈ 0.139 µM) | Number inhibited at MIC ([8]; CoNS, Methicillin-resistant (509), at 0.015 mg/L): 77 | Number inhibited at MIC ([8]; CoNS, Methicillin-resistant (509), at 0.03 mg/L): 181 | Number inhibited at MIC ([8]; CoNS, Methicillin-resistant (509), at 0.06 mg/L): 114 | Number inhibited at MIC ([8]; CoNS, Methicillin-resistant (509), at 0.12 mg/L): 33 | Number inhibited at MIC ([8]; CoNS, Methicillin-resistant (509), at 0.25 mg/L): 4 | Number inhibited at MIC [8, 11]: 100 | cumulative % inhibited at MIC [8, 11]: 19.7% | Number inhibited at MIC ([8]; CoNS, Methicillin-susceptible (137), at 0.015 mg/L): 28 | Number inhibited at MIC ([8]; CoNS, Methicillin-susceptible (137), at 0.03 mg/L): 50 | Number inhibited at MIC ([8]; CoNS, Methicillin-susceptible (137), at 0.06 mg/L): 21 | Number inhibited at MIC ([8]; CoNS, Methicillin-susceptible (137), at 0.12 mg/L): 1 | Number inhibited at MIC [8, 12]: 37 | cumulative % inhibited at MIC [8, 12]: 27.0% | Number inhibited at MIC ([8]; CoNS, Teicoplanin MIC ≧8 mg/L (72), at 0.015 mg/L): 1 | inhibition at 0.015 µg/mL ([8]; CoNS, Teicoplanin MIC ≧8 mg/L (72), at 0.015 mg/L, read-out: cumulative % inhibited at MIC): 2.8% | Number inhibited at MIC ([8]; CoNS, Teicoplanin MIC ≧8 mg/L (72), at 0.03 mg/L): 15 | inhibition at 0.03 µg/mL ([8]; CoNS, Teicoplanin MIC ≧8 mg/L (72), at 0.03 mg/L, read-out: cumulative % inhibited at MIC): 23.6% | Number inhibited at MIC ([8]; CoNS, Teicoplanin MIC ≧8 mg/L (72), at 0.06 mg/L): 36 | inhibition at 0.06 µg/mL ([8]; CoNS, Teicoplanin MIC ≧8 mg/L (72), at 0.06 mg/L, read-out: cumulative % inhibited at MIC): 73.6% | Number inhibited at MIC ([8]; CoNS, Teicoplanin MIC ≧8 mg/L (72), at 0.12 mg/L): 15 | inhibition at 0.12 µg/mL ([8]; CoNS, Teicoplanin MIC ≧8 mg/L (72), at 0.12 mg/L, read-out: cumulative % inhibited at MIC): 94.4% | Number inhibited at MIC ([8]; CoNS, Teicoplanin MIC ≧8 mg/L (72), at 0.25 mg/L): 4 | inhibition at 0.25 µg/mL ([8]; CoNS, Teicoplanin MIC ≧8 mg/L (72), at 0.25 mg/L, read-out: cumulative % inhibited at MIC): 100% | Number inhibited at MIC [8, 13]: 1 | cumulative % inhibited at MIC [8, 13]: 1.4% | MIC50 [8, 14]: 0.03 µg/mL (≈ 0.0167 µM) | MIC90 [8, 14]: 0.06 µg/mL (≈ 0.0335 µM) | MIC50 [8, 15]: 0.03 µg/mL (≈ 0.0167 µM) | MIC90 [8, 15]: 0.06 µg/mL (≈ 0.0335 µM) | MIC50 ([8]; Table 1, CoNS, Teicoplanin MIC ≧8 mg/L (72), read-out: MIC 50%): 0.06 µg/mL (≈ 0.0335 µM) | MIC90 ([8]; Table 1, CoNS, Teicoplanin MIC ≧8 mg/L (72), read-out: MIC 90%): 0.12 µg/mL (≈ 0.0669 µM) | MIC50 [8, 16]: 0.03 µg/mL (≈ 0.0167 µM) | MIC90 [8, 16]: 0.06 µg/mL (≈ 0.0335 µM) | MIC Range [8, 16]: ≦0.008-0.25 mg/L | inhibition at 0.015 µg/mL [8, 17]: 41.8% | inhibition at 0.03 µg/mL [8, 17]: 79.4% | inhibition at 0.06 µg/mL [8, 17]: 96.7% | inhibition at 0.12 µg/mL [8, 17]: 100% | inhibition at 0.015 µg/mL ([8]; read-out: cumulative % inhibited at MIC, CoNS, Methicillin-resistant (509), at 0.015 mg/L): 34.8% | inhibition at 0.03 µg/mL ([8]; read-out: cumulative % inhibited at MIC, CoNS, Methicillin-resistant (509), at 0.03 mg/L): 70.3% | inhibition at 0.06 µg/mL ([8]; read-out: cumulative % inhibited at MIC, CoNS, Methicillin-resistant (509), at 0.06 mg/L): 92.7% | inhibition at 0.12 µg/mL ([8]; read-out: cumulative % inhibited at MIC, CoNS, Methicillin-resistant (509), at 0.12 mg/L): 99.2% | inhibition at 0.25 µg/mL ([8]; read-out: cumulative % inhibited at MIC, CoNS, Methicillin-resistant (509), at 0.25 mg/L): 100% | inhibition at 0.015 µg/mL ([8]; read-out: cumulative % inhibited at MIC, CoNS, Methicillin-susceptible (137), at 0.015 mg/L): 47.5% | inhibition at 0.03 µg/mL ([8]; read-out: cumulative % inhibited at MIC, CoNS, Methicillin-susceptible (137), at 0.03 mg/L): 83.9% | inhibition at 0.06 µg/mL ([8]; read-out: cumulative % inhibited at MIC, CoNS, Methicillin-susceptible (137), at 0.06 mg/L): 99.3% | inhibition at 0.12 µg/mL ([8]; read-out: cumulative % inhibited at MIC, CoNS, Methicillin-susceptible (137), at 0.12 mg/L): 100%
